Assay type in all cases: biochemical
Test [1] addresses T1, cathepsin L (Homo sapiens, UniProt P07711).
T1 construct: cathepsin L—isolated from human liver (Calbiochem #219402); purchased Calbiochem 219402; host or cells: human liver (tissue-derived)
Description: Cathepsin L enzyme inhibition in vitro (kinetic fluorescence assay). As to conditions: cathepsin L isolated from human liver vs calpain I. The essentials: (§1)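 Inhibition is measured at room temperature in cysteine-containing MES buffer, pH 6.0, by continuous fluorescence at 460 nm. Cathepsin S (0.5 nM) uses 20 μM Z-Val-Val-Arg-AMC; L (1 nM) and B (0.25 nM) use Z-Phe-Arg-AMC at 2 and 100 μM respectively.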

In test [2] the target is T2, cathepsin K (Homo sapiens, UniProt P43235).
T2 construct: purchased Calbiochem 342001; host or cells: E. coli
T2 sequence (P43235 115-329): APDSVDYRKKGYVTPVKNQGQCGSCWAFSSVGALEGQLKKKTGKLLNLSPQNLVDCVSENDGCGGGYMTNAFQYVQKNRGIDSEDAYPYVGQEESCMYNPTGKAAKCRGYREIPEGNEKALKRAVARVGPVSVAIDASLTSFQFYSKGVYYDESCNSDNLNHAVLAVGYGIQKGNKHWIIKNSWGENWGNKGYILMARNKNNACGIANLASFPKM
Description: Cathepsin K enzyme inhibition in vitro (kinetic fluorescence assay). As to conditions: cathepsin K activated from recombinant human procathepsin K vs calpain I.

For test [3], the target named is T3, cathepsin S (Homo sapiens, UniProt P25774).
T3 construct: purchased Calbiochem 219343; host or cells: E. coli
T3 sequence (P25774 115-331): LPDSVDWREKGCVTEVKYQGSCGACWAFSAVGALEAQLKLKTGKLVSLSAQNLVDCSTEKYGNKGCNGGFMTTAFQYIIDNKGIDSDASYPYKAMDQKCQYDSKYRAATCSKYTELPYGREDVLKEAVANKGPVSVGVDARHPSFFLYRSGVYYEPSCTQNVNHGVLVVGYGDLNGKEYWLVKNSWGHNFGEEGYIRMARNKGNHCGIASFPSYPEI
As to the kind of experiment: Cathepsin S enzyme inhibition in vitro (kinetic fluorescence assay). As to conditions: recombinant human cathepsin S vs calpain I. The essentials:
as §1

Test [4] concerns the target T4, cathepsin B (Homo sapiens, UniProt P07858).
T4 construct: cathepsin B—isolated from human liver (Calbiochem #219362); purchased Calbiochem 219362; host or cells: human liver (tissue-derived)
As to the kind of experiment: Cathepsin B enzyme inhibition in vitro (kinetic fluorescence assay). As to conditions: cathepsin B isolated from human liver vs calpain I. The essentials: as §1

T1 sequence (P07711 114-333): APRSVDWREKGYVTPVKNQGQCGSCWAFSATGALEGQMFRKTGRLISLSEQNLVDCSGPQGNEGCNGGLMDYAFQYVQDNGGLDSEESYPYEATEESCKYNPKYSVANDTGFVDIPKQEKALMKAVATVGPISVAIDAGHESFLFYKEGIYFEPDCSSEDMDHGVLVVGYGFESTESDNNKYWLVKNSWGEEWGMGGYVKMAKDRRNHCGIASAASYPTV

For `NC(=O)C(=O)C(Cc1ccccc1)NC(=O)c1cccnc1-n1ccc(-c2c(F)cc(F)cc2F)n1` (stereo not drawn) [Example 116, N-[3-Amino-2,3-dioxo-1-(phenylmethyl)propyl]-2-[3-(2,4,6-trifluorophenyl)-1H-pyrazol-1-yl]pyridine-3-carboxamide], the “Sel cat. L: Ki(cathepsin L)/Ki(calpain) ratio” value in test [1] was “++ (++ means a Ki(cathepsin L)/Ki(calpain) ratio of ≧50)”. Also, the “Sel cat. K: Ki(cathepsin K)/Ki(calpain) ratio” value in test [2] is recorded as “+ (+ means 10≦Ki(cathepsin K)/Ki(calpain)<30)”. For the same compound, the “Sel cat. S: Ki(cathepsin S)/Ki(calpain) ratio” value in test [3] is “++ (++ means a Ki(cathepsin S)/Ki(calpain) ratio of ≧100)”. The “Sel cat. B: Ki(cathepsin B)/Ki(calpain) ratio” value in test [4] is given as “++ (++ means a Ki(cathepsin B)/Ki(calpain) ratio of ≧30)”.

For the compound `COc1ccc(-c2ccn(-c3ncccc3C(=O)NC(Cc3ccccc3)C(=O)C(N)=O)n2)c(OC)c1` (stereo not drawn) [Example 117, N-[3-Amino-2,3-dioxo-1-(phenylmethyl)propyl]-2-{3-[2,4-bis(methyloxy)phenyl]-1H-pyrazol-1-yl}pyridine-3-carboxamide], the “Sel cat. L: Ki(cathepsin L)/Ki(calpain) ratio” value in test [1] is “++ (++ means a Ki(cathepsin L)/Ki(calpain) ratio of ≧50)”. For the same compound, the “Sel cat. K: Ki(cathepsin K)/Ki(calpain) ratio” value in test [2] is on record as “++ (++ means a Ki(cathepsin K)/Ki(calpain) ratio of ≧30)”. In addition, in test [3], the “Sel cat. S: Ki(cathepsin S)/Ki(calpain) ratio” value is recorded as “++ (++ means a Ki(cathepsin S)/Ki(calpain) ratio of ≧100)”. Also, in test [4], the “Sel cat. B: Ki(cathepsin B)/Ki(calpain) ratio” value is listed as “++ (++ means a Ki(cathepsin B)/Ki(calpain) ratio of ≧30)”.

For the compound `NC(=O)C(=O)C(Cc1ccccc1)NC(=O)c1cccnc1-n1ccc(-c2ccc3c(c2)OC(F)(F)O3)n1` (stereo not drawn) [Example 118, N-[3-Amino-2,3-dioxo-1-(phenylmethyl)propyl]-2-[3-(2,2-difluoro-1,3-benzodioxol-5-yl)-1H-pyrazol-1-yl]pyridine-3-carboxamide], in test [1], the “Sel cat. L: Ki(cathepsin L)/Ki(calpain) ratio” value was “++ (++ means a Ki(cathepsin L)/Ki(calpain) ratio of ≧50)”. For the same compound, the “Sel cat. K: Ki(cathepsin K)/Ki(calpain) ratio” value in test [2] is “+ (+ means 10≦Ki(cathepsin K)/Ki(calpain)<30)”. The “Sel cat. S: Ki(cathepsin S)/Ki(calpain) ratio” value in test [3] was “++ (++ means a Ki(cathepsin S)/Ki(calpain) ratio of ≧100)”. Further, the “Sel cat. B: Ki(cathepsin B)/Ki(calpain) ratio” value in test [4] was “++ (++ means a Ki(cathepsin B)/Ki(calpain) ratio of ≧30)”.

As to `NC(=O)C(=O)C(Cc1ccccc1)NC(=O)c1cccnc1-n1ccc(-c2cccc3c2OC(F)(F)O3)n1` (stereo not drawn) [Example 119, N-[3-Amino-2,3-dioxo-1-(phenylmethyl)propyl]-2-[3-(2,2-difluoro-1,3-benzodioxol-4-yl)-1H-pyrazol-1-yl]pyridine-3-carboxamide], the “Sel cat. L: Ki(cathepsin L)/Ki(calpain) ratio” value in test [1] is “++ (++ means a Ki(cathepsin L)/Ki(calpain) ratio of ≧50)”. Moreover, in test [2], the “Sel cat. K: Ki(cathepsin K)/Ki(calpain) ratio” value is “++ (++ means a Ki(cathepsin K)/Ki(calpain) ratio of ≧30)”. In addition, the “Sel cat. S: Ki(cathepsin S)/Ki(calpain) ratio” value in test [3] is reported as “++ (++ means a Ki(cathepsin S)/Ki(calpain) ratio of ≧100)”. Moreover, the “Sel cat. B: Ki(cathepsin B)/Ki(calpain) ratio” value in test [4] was “++ (++ means a Ki(cathepsin B)/Ki(calpain) ratio of ≧30)”.

With `NC(=O)C(=O)C(Cc1ccccc1)NC(=O)c1cccnc1-n1ccc(-c2c(F)ccc(Cl)c2Cl)n1` (stereo not drawn) [Example 120, N-[3-Amino-2,3-dioxo-1-(phenylmethyl)propyl]-2-[3-(2,3-dichloro-6-fluorophenyl)-1H-pyrazol-1-yl]pyridine-3-carboxamide], the “Sel cat. L: Ki(cathepsin L)/Ki(calpain) ratio” value in test [1] is recorded as “+ (+ means 30≦Ki(cathepsin L)/Ki(calpain)<50)”. The “Sel cat. K: Ki(cathepsin K)/Ki(calpain) ratio” value in test [2] is “++ (++ means a Ki(cathepsin K)/Ki(calpain) ratio of ≧30)”. Moreover, the “Sel cat. S: Ki(cathepsin S)/Ki(calpain) ratio” value in test [3] is on record as “++ (++ means a Ki(cathepsin S)/Ki(calpain) ratio of ≧100)”. Also, the “Sel cat. B: Ki(cathepsin B)/Ki(calpain) ratio” value in test [4] is “++ (++ means a Ki(cathepsin B)/Ki(calpain) ratio of ≧30)”.

As for `COc1c(C)cc(C)cc1-c1ccn(-c2ncccc2C(=O)NC(Cc2ccccc2)C(=O)C(N)=O)n1` (stereo not drawn) [Example 121, N-[3-Amino-2,3-dioxo-1-(phenylmethyl)propyl]-2-{3-[3,5-dimethyl-2-(methyloxy)phenyl]-1H-pyrazol-1-yl}pyridine-3-carboxamide], the “Sel cat. L: Ki(cathepsin L)/Ki(calpain) ratio” value in test [1] is “++ (++ means a Ki(cathepsin L)/Ki(calpain) ratio of ≧50)”. Besides, the “Sel cat. K: Ki(cathepsin K)/Ki(calpain) ratio” value in test [2] was “++ (++ means a Ki(cathepsin K)/Ki(calpain) ratio of ≧30)”. Moreover, in test [3], the “Sel cat. S: Ki(cathepsin S)/Ki(calpain) ratio” value was “++ (++ means a Ki(cathepsin S)/Ki(calpain) ratio of ≧100)”. In test [4], the “Sel cat. B: Ki(cathepsin B)/Ki(calpain) ratio” value was “++ (++ means a Ki(cathepsin B)/Ki(calpain) ratio of ≧30)”.

On to `NC(=O)C(=O)C(Cc1ccc(F)cc1)NC(=O)c1cccnc1-n1ccc(-c2ccccc2)n1` (stereo not drawn) [Example 123, N-{3-Amino-1-[(4-fluorophenyl)methyl]-2,3-dioxopropyl}-2-(3-phenyl-1H-pyrazol-1-yl)pyridine-3-carboxamide], for which the “Sel cat. L: Ki(cathepsin L)/Ki(calpain) ratio” value in test [1] was “++ (++ means a Ki(cathepsin L)/Ki(calpain) ratio of ≧50)”. Further, the “Sel cat. K: Ki(cathepsin K)/Ki(calpain) ratio” value in test [2] is on record as “++ (++ means a Ki(cathepsin K)/Ki(calpain) ratio of ≧30)”. Also, the “Sel cat. S: Ki(cathepsin S)/Ki(calpain) ratio” value in test [3] is recorded as “++ (++ means a Ki(cathepsin S)/Ki(calpain) ratio of ≧100)”. Also, the “Sel cat. B: Ki(cathepsin B)/Ki(calpain) ratio” value in test [4] is reported as “++ (++ means a Ki(cathepsin B)/Ki(calpain) ratio of ≧30)”.

Consider `NC(=O)C(=O)C(Cc1ccccc1)NC(=O)c1cccnc1-n1ccc(-c2ccccc2OC(F)(F)F)n1` (stereo not drawn) [Example 124, N-[3-Amino-2,3-dioxo-1-(phenylmethyl)propyl]-2-(3-{2-[(trifluoromethyl)oxy]phenyl}-1H-pyrazol-1-yl)pyridine-3-carboxamide], for which the “Sel cat. L: Ki(cathepsin L)/Ki(calpain) ratio” value in test [1] is “++ (++ means a Ki(cathepsin L)/Ki(calpain) ratio of ≧50)”. In test [2], the “Sel cat. K: Ki(cathepsin K)/Ki(calpain) ratio” value was “++ (++ means a Ki(cathepsin K)/Ki(calpain) ratio of ≧30)”. In addition, in test [3], the “Sel cat. S: Ki(cathepsin S)/Ki(calpain) ratio” value is on record as “++ (++ means a Ki(cathepsin S)/Ki(calpain) ratio of ≧100)”. Further, in test [4], the “Sel cat. B: Ki(cathepsin B)/Ki(calpain) ratio” value was “++ (++ means a Ki(cathepsin B)/Ki(calpain) ratio of ≧30)”.

For `COc1cc(F)ccc1-c1ccn(-c2ncccc2C(=O)NC(Cc2ccccc2)C(=O)C(N)=O)n1` (stereo not drawn) [Example 125, N-[3-Amino-2,3-dioxo-1-(phenylmethyl)propyl]-2-{3-[4-fluoro-2-(methyloxy)phenyl]-1H-pyrazol-1-yl}pyridine-3-carboxamide], the “Sel cat. L: Ki(cathepsin L)/Ki(calpain) ratio” value in test [1] was “++ (++ means a Ki(cathepsin L)/Ki(calpain) ratio of ≧50)”. In addition, the “Sel cat. K: Ki(cathepsin K)/Ki(calpain) ratio” value in test [2] is reported as “++ (++ means a Ki(cathepsin K)/Ki(calpain) ratio of ≧30)”. Moreover, the “Sel cat. S: Ki(cathepsin S)/Ki(calpain) ratio” value in test [3] is “++ (++ means a Ki(cathepsin S)/Ki(calpain) ratio of ≧100)”. Besides, the “Sel cat. B: Ki(cathepsin B)/Ki(calpain) ratio” value in test [4] is recorded as “++ (++ means a Ki(cathepsin B)/Ki(calpain) ratio of ≧30)”.

Take `NC(=O)C(=O)C(Cc1ccc(OCc2ccccc2)cc1)NC(=O)c1cccnc1-n1ccc(-c2ccccc2)n1` (stereo not drawn) [Example 127, N-[3-Amino-2,3-dioxo-1-({4-[(phenylmethyl)oxy]phenyl}methyl)propyl]-2-(3-phenyl-1H-pyrazol-1-yl)pyridine-3-carboxamide]: the “Sel cat. L: Ki(cathepsin L)/Ki(calpain) ratio” value in test [1] is recorded as “++ (++ means a Ki(cathepsin L)/Ki(calpain) ratio of ≧50)”. For the same compound, the “Sel cat. K: Ki(cathepsin K)/Ki(calpain) ratio” value in test [2] is given as “++ (++ means a Ki(cathepsin K)/Ki(calpain) ratio of ≧30)”. Moreover, in test [3], the “Sel cat. S: Ki(cathepsin S)/Ki(calpain) ratio” value is listed as “++ (++ means a Ki(cathepsin S)/Ki(calpain) ratio of ≧100)”. Besides, in test [4], the “Sel cat. B: Ki(cathepsin B)/Ki(calpain) ratio” value is “++ (++ means a Ki(cathepsin B)/Ki(calpain) ratio of ≧30)”.

On to `COc1ccc(F)cc1-c1ccn(-c2ncccc2C(=O)NC(Cc2ccccc2)C(=O)C(N)=O)n1` (stereo not drawn) [Example 130, N-[3-Amino-2,3-dioxo-1-(phenylmethyl)propyl]-2-{3-[5-fluoro-2-(methyloxy)phenyl]-1H-pyrazol-1-yl}pyridine-3-carboxamide], for which the “Sel cat. L: Ki(cathepsin L)/Ki(calpain) ratio” value in test [1] is “++ (++ means a Ki(cathepsin L)/Ki(calpain) ratio of ≧50)”. Moreover, the “Sel cat. K: Ki(cathepsin K)/Ki(calpain) ratio” value in test [2] was “++ (++ means a Ki(cathepsin K)/Ki(calpain) ratio of ≧30)”. Besides, the “Sel cat. S: Ki(cathepsin S)/Ki(calpain) ratio” value in test [3] was “++ (++ means a Ki(cathepsin S)/Ki(calpain) ratio of ≧100)”. In test [4], the “Sel cat. B: Ki(cathepsin B)/Ki(calpain) ratio” value is given as “++ (++ means a Ki(cathepsin B)/Ki(calpain) ratio of ≧30)”.

`COc1ccc(Cl)cc1-c1ccn(-c2ncccc2C(=O)NC(Cc2ccccc2)C(=O)C(N)=O)n1` (stereo not drawn) [Example 131, N-[3-Amino-2,3-dioxo-1-(phenylmethyl)propyl]-2-{3-[5-chloro-2-(methyloxy)phenyl]-1H-pyrazol-1-yl}pyridine-3-carboxamide]: the “Sel cat. L: Ki(cathepsin L)/Ki(calpain) ratio” value in test [1] is listed as “++ (++ means a Ki(cathepsin L)/Ki(calpain) ratio of ≧50)”. In addition, the “Sel cat. K: Ki(cathepsin K)/Ki(calpain) ratio” value in test [2] is listed as “++ (++ means a Ki(cathepsin K)/Ki(calpain) ratio of ≧30)”. For the same compound, in test [3], the “Sel cat. S: Ki(cathepsin S)/Ki(calpain) ratio” value was “++ (++ means a Ki(cathepsin S)/Ki(calpain) ratio of ≧100)”. Further, in test [4], the “Sel cat. B: Ki(cathepsin B)/Ki(calpain) ratio” value is on record as “++ (++ means a Ki(cathepsin B)/Ki(calpain) ratio of ≧30)”.

Source of the values: patent US7799809B2, “Carboxamide compounds and their use as calpain inhibitors” (Abbott GmbH & Co. KG, priority 2006, dated 2010).
